Tests used:
[1] = test system: H207 (ovarian human carcinoma); assay: Tumor growth model for treated subjects, H207 inoculated subcutaneously in athymic nude mice (Experiment-C); type: in vivo; conditions: average growth curve
Protocol: The cell line H207 (ovarian human carcinoma) was inoculated subcutaneously on the back of 70 female athymic nude mice, initially weighing 17.0-25.0 g. […] Cage G2: 7 mice, treated with 3 iv-bolus of Drug-C, repeated every 7 days (therapeutic regimen q7d×3), at a dosing of 0.39 mg/kg. • III. Cage G3: 7 mice, treated with iv-bolus of Drug-C at the therapeutic regimen q7d×3, at a dosing of 0.52 mg/kg. • IV. […] Cage G6: 7 mice, treated with iv-bolus of Drug-C at the therapeutic regimen q4d×3, at a dosing of 0.39 mg/kg. • VII. Cage G8: 7 mice, treated with iv-bolus of Drug-C at the therapeutic regimen q4d×3, at a dosing of 0.52 mg/kg. • VIII. Cage G9: 7 mice, treated with 10 iv-bolus of Drug-C, subdivided in 2 cycles of treatment of 5 daily iv-bolus followed by 2 days of rest (therapeutic regimen qd×5×2 wks), at the dosing of 0.117 mg/kg each. • IX. Cage G10: 7 mice treated at the same treatment and therapeutic regimen of G4, but with the drug coming from a different batch of production.
In this case, despite the silent interval finished in correspondence of the tenth day (where the first measurement of the tumor mass was carried out), the chemotherapeutic treatment started in correspondence of the eleventh day.
The dimensions of the tumor can be taken applying different types of measurements broadly classifiable as measurements of linear dimensions, of volume (or mass) and cell number. For tumors that maintain more or less a spherical morphology, as in the case of solid tumors, the measurement of the three principal diameters results the most adequate, as well as the most practiced solution. Nevertheless, in the case of subcutaneous tumors, the tumor can be considered of spherical shape only during the initial phase of growth; in the following phases, the dimension perpendicular to the skin is generally much smaller than the percutaneous dimensions, conferring to the mass a plaque-like shape or an hemi-ellipsoidal shape. In the experiments taken into consideration, only the dimensions of the two percutaneous diameters were directly measured with vernier calipers. The third dimension was not directly measured, because of the limited accessibility (which would have required a greater invasiveness), in the assumption that two measures were anyhow sufficient to guarantee a good approximation of the tumor mass (K. Rygaard and M. Spang-Thomsen, “Quantitation and Gompertzian analysis of tumor growth”. Breast Cancer Research and Treatment, 46: 303-312,1997).
The volume of a tumor can be indirectly calculated by applying the following empirical formula: [formula] where DMIN and DMAX denote, respectively, the smallest and the largest percutaneous diameter. Such empirical formula hypothesizes that the neoplasia has an ellipsoidal shape (D. A. Cameron, W. M. Gregory, A. Bowman, E. D. C. Anderson, P. Levack, P. Forouhi and R. F. C. Leonard, “Identification of long-term survivors in primary breast cancer by dynamic modeling of tumour response”. British Journal of Cancer, 83(1): 98-103, 2000, Hammond, L. A.; Hilsenbeck, S. G.; Eckhardt, S. G.; Marty, J; Mangold, G.; MacDonald, G. R.; Rowinsky, E. K.; Von Hoff, D. D; Weitman S. Enhanced antitumour activity of 6-hydroxymethylacylfulvene in combination with topotecan or paclitaxel in the MV522 lung carcinoma xenograft model. European Journal of Cancer 2000, 36, 2430-2436) obtained by the rotation of a hemi-ellipsoid (with DMIN and DMAX as axes of the percutaneous plane) around its largest axe. Assuming δ as a constant density equal to δ=10^−3g/mm^3, the empirical expression for the mass of the neoplasia results to be: [formula] The Measurement Error Model

[2] = three-compartment PK model; known average value; cited from earlier work
[3] = test system: H207 (ovarian human carcinoma); assay: Tumor growth model for treated subjects, H207 inoculated subcutaneously in athymic nude mice (Experiment-C); type: in vivo; conditions: average growth curve; remark: listed apart in the source
[4] = cage G2, 0.39 mg/kg iv-bolus q7dx3
[5] = cage G3, 0.52 mg/kg iv-bolus q7dx3
[6] = cage G4, 0.78 mg/kg iv-bolus q7dx3
[7] = cage G5, 0.26 mg/kg iv-bolus q4dx3
[8] = cage G6, 0.39 mg/kg iv-bolus q4dx3
[9] = cage G7, 0.52 mg/kg iv-bolus q4dx3
[10] = cage G8, 0.117 mg/kg iv-bolus qdx5x2wks
[11] = cage G9, 0.156 mg/kg iv-bolus qdx5x2wks
[12] = cage G10, 0.78 mg/kg iv-bolus q7dx3, drug from a different batch

## C=C(Br)C(=O)Nc1cc(C(=O)Nc2cc(C(=O)Nc3cc(C(=O)Nc4cc(C(=O)NCCNC(=N)N)n(C)c4)n(C)c3)n(C)c2)n(C)c1 [Drug-C, brostallicin]
[1]; [4]
  K1 (index of the tumor cells death rate): 0.289 day⁻¹
  K2 (index of the potency of the compound): 0.1731 mL/g/day
  λ0 (production rate of tumor cells, exponential phase): 0.2886
  λ1 (tumor cells mass produced in the time unit, linear phase): 0.5183
[1]; [5]
  K1 (index of the tumor cells death rate): 0.2574 day⁻¹
  K2 (index of the potency of the compound): 0.1519 mL/g/day
  λ0 (production rate of tumor cells, exponential phase): 0.2757
  λ1 (tumor cells mass produced in the time unit, linear phase): 0.6241
[1]; [6]
  K1 (index of the tumor cells death rate): 0.2558 day⁻¹
  K2 (index of the potency of the compound): 0.1085 mL/g/day
  λ0 (production rate of tumor cells, exponential phase): 0.2297
  λ1 (tumor cells mass produced in the time unit, linear phase): 0.3193
[1]; [7]
  K1 (index of the tumor cells death rate): 0.2979 day⁻¹
  K2 (index of the potency of the compound): 0.2044 mL/g/day
  λ0 (production rate of tumor cells, exponential phase): 0.2728
  λ1 (tumor cells mass produced in the time unit, linear phase): 0.602
[1]; [8]
  K1 (index of the tumor cells death rate): 0.3486 day⁻¹
  K2 (index of the potency of the compound): 0.1698 mL/g/day
  λ0 (production rate of tumor cells, exponential phase): 0.2554
  λ1 (tumor cells mass produced in the time unit, linear phase): 0.2736
[1]; [9]
  K1 (index of the tumor cells death rate): 0.2488 day⁻¹
  K2 (index of the potency of the compound): 0.12 mL/g/day
  λ0 (production rate of tumor cells, exponential phase): 0.1966
  λ1 (tumor cells mass produced in the time unit, linear phase): 0.279
[1]; [10]
  K1 (index of the tumor cells death rate): 0.3766 day⁻¹
[1]; [11]
  K2 (index of the potency of the compound): 0.2829 mL/g/day
  λ0 (production rate of tumor cells, exponential phase): 0.2942
  λ1 (tumor cells mass produced in the time unit, linear phase): 0.1931
[1]; [12]
  K1 (index of the tumor cells death rate): 0.3789 day⁻¹
  K2 (index of the potency of the compound): 0.1558 mL/g/day
  λ0 (production rate of tumor cells, exponential phase): 0.2969
  λ1 (tumor cells mass produced in the time unit, linear phase): 0.2177
[2]
  K10: 134.7 day⁻¹
  K12: 42.33 day⁻¹
  K13: 13.28 day⁻¹
  K21: 48.7 day⁻¹
  K31: 5.898 day⁻¹
  Vd: 0.1811 L/kg
[3]; [10]
  K2 (index of the potency of the compound): 0.2081 mL/g/day
  λ0 (production rate of tumor cells, exponential phase): 0.2611
  λ1 (tumor cells mass produced in the time unit, linear phase): 0.581
[3]; [11]
  K1 (index of the tumor cells death rate): 0.4152 day⁻¹

— patent US20050143927A1, “Method for estimating or predicting the anti-tumor activity of a compound and for estimating or predicting the tumor growth in mammals” (Pharmacia Italia S.p.A., priority 2002, published 2005)
